The text below walks through data of patent US20250115739A1, “COMPOUND, RUBBER BLEND CONTAINING THE COMPOUND, VEHICLE TIRE COMPRISING THE RUBBER BLEND IN AT LEAST ONE COMPONENT, PROCESS FOR PREPARING THE COMPOUND, AND USE OF THE COMPOUND AS AN ANTI-AGING AGENT AND/OR ANTIOXIDANT” (Continental Reifen Deutschland GmbH, priority 2022, published 2025).

A short description of this series: Measurement of oxidation induction time (OIT) by DSC. The following applies: for Time [min] at 180° C. (time to oxidation, oxidation induction time): isothermal 180° C., O2 atmosphere 50 ml/min, with polyisoprene LIR-50, DSC peak. How it is done:
The compound of formula III) was investigated under laboratory conditions for its potential protective effect as an aging stabilizer by measurement of the oxidation induction time.
To this end the compounds of formula III) and 6-PPD in each case together with a polymer (liquid synthetic polyisoprene (IR), LIR-50, Kuraray, weight average molecular weight distribution Mw=54 000 g/mol, glass transition temperature Tg=−63° C.) were heated at constant temperature (180° C.) until onset of oxidation (start temperature 35° C., heating to 170° C. at a heating rate of 20 K/min (kelvin per minute), heating to 180° C. at a heating rate of 1 K/min; purge gas: nitrogen (N2), volume flow 50 ml/min).
The specimen was kept under isothermal conditions at 180° C. under an N2 atmosphere for 5 minutes and the atmosphere was then switched to an 02 atmosphere (volume flow 50 ml/min).
Oxidation was determined via a peak using DSC (differential scanning calorimetry).
The time in minutes to oxidation was measured.

As to `CC1CCC2C(C1)Nc1ccc(Nc3ccccc3)cc1C2(C)C` (stereo not drawn) [Formula III), 6,9,9-trimethyl-N-phenyl-5,6,7,8,8a,9,10,10a-octahydroacridin-2-amine], the “Time [min] at 180° C. (time to oxidation, oxidation induction time)” value is 93 ± 10 min. The “protective effect as aging stabilizer (from OIT)” value (taking into account measurement accuracy of 10 minutes) is given as “protective effect comparable to 6PPD”.

Consider `CC(C)CC(C)Nc1ccc(Nc2ccccc2)cc1` (stereo not drawn) [Substance 6PPD, N-(1,3-dimethylbutyl)-N′-phenyl-p-phenylenediamine, reference compound], for which the “Time [min] at 180° C. (time to oxidation, oxidation induction time)” value is 116 ± 10 min.
